Consider 14 compounds from PubChem BioAssay (NCI).

Test systems include CAKI-1 renal; T-47D breast; MOLT-4 leukemia; DU-145 prostate; EKVX NSCLC; K-562 leukemia; SK-MEL-2 melanoma; ACHN renal; MDA-MB-435.
Common to all, as to assay: growth of human tumour cells (NCI), 48 h

Where “and” joins values, the source holds several entries; their conditions need not be identical. Equal entries are not always repeated.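 How tested: cells in 96-well plates exposed to compound for 48 hours at five concentrations. GI50 = concentration required for 50% inhibition of growth. TGI: concentration producing complete growth inhibition.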 *1 amine or outer side, *2 acyl side, *3 side chain or, on linkers, in order; H or OH if unused. Where a SMILES comes first, the peptide text is derived from it. [ ]: non-standard residue; d: D form. The star is where a group is joined. X12 = NCCCCC(N[*:1])C(=O)CN1CCCC1C(=O)[*:2]; Pentadecanoyl = CCCCCCCCCCCCCCC(=O)* Some results are limits rather than exact numbers.

As for `COc1ccc(Nc2ccnc3cc(Cl)ccc23)cc1CN(CCCl)CCCl`, the GI50 is 0.262 µM in the assay on CAKI-1 renal; 2.27 µM in the assay with T-47D breast; 0.662 µM with MOLT-4 leukemia; 0.901 µM in the assay on DU-145 prostate; 1.9 µM in the assay with EKVX NSCLC; 1.53 µM with K-562 leukemia. Moreover, the TGI was 0.933 µM in the assay with CAKI-1 renal; greater than 100 µM in the assay with T-47D breast; 2.61 µM in the assay with MOLT-4 leukemia; 3.54 µM in the assay with DU-145 prostate; greater than 21.5 µM in the assay with EKVX NSCLC; greater than 22.7 µM in the assay on K-562 leukemia.

`Cc1cc(C)c(N)c(CO)c1`: the TGI in the assay on CAKI-1 renal is > 32.1 µM and 27.5 µM; in the assay on SK-MEL-2 melanoma, greater than 100 µM; in the assay on ACHN renal, greater than 100 µM; in the assay with MOLT-4 leukemia, greater than 100 µM; in the assay with MDA-MB-435, greater than 100 µM; in the assay on DU-145 prostate it was greater than 100 µM. Further, the TGI with EKVX NSCLC and in the assay with K-562 leukemia was greater than 100 µM throughout.

Consider `CC1CN=C(N(C(=O)Nc2ccccc2)C2CCCCC2)S1` (centres undefined), for which the TGI with CAKI-1 renal is 31.2 µM; with T-47D breast, 92.7 µM; in the assay with SK-MEL-2 melanoma, 29.5 µM; in the assay on ACHN renal, 26.3 µM; with MOLT-4 leukemia, 38.8 µM; with DU-145 prostate, 69.7 µM. Also, the TGI stood at 35.4 µM in the assay on EKVX NSCLC and 73.2 µM in the assay with K-562 leukemia.

For `Cc1cnc2[nH]c(-c3sccc3C)cc(=O)c2c1`, the TGI was greater than 100 µM in the assay on CAKI-1 renal; greater than 100 µM in the assay with T-47D breast; greater than 100 µM in the assay with SK-MEL-2 melanoma; greater than 100 µM in the assay with ACHN renal; greater than 84.5 µM in the assay with MOLT-4 leukemia; greater than 100 µM with DU-145 prostate. Besides, the TGI in the assay with EKVX NSCLC and with K-562 leukemia was greater than 100 µM in each case.

Consider `O=S1(=O)OCCOS(=O)(=O)C1S(=O)(=O)c1cccc2ccccc12`, for which the TGI in the assay on CAKI-1 renal, in the assay with SK-MEL-2 melanoma, in the assay on ACHN renal, in the assay with MOLT-4 leukemia, in the assay on MDA-MB-435 and with DU-145 prostate was greater than 100 µM throughout. The TGI in the assay with EKVX NSCLC and in the assay on K-562 leukemia was greater than 100 µM in each case.

On to `COc1ccc(C(OCC2OC(n3ccc(Oc4c(F)c(F)c(F)c(F)c4F)nc3=O)CC2OP(OCCC#N)N(C(C)C)C(C)C)(c2ccccc2)c2ccc(OC)cc2)cc1` (centres undefined), for which the TGI with CAKI-1 renal, with T-47D breast, in the assay with SK-MEL-2 melanoma, in the assay on ACHN renal, in the assay with MOLT-4 leukemia and in the assay with MDA-MB-435 was greater than 100 µM in each case. In addition, the TGI with DU-145 prostate and in the assay on K-562 leukemia was greater than 100 µM in each case.

Regarding `Oc1[nH]c2ccccc2c1N=NC(=S)NCc1ccccn1`, the TGI with CAKI-1 renal worked out at 11.7 µM; with T-47D breast, 21.4 µM; in the assay with SK-MEL-2 melanoma, 28.7 µM; in the assay with ACHN renal it was 2.25 µM; in the assay with MOLT-4 leukemia, 4.9 µM; with MDA-MB-435, 17.4 µM. The TGI in the assay on DU-145 prostate is 12.7 µM; in the assay on EKVX NSCLC it was 12.5 µM.

As for `C(=N\Nc1nnc(-c2nnc(N/N=C/c3ccccc3)o2)o1)/c1ccccc1`, the TGI with CAKI-1 renal, with T-47D breast, in the assay on ACHN renal, in the assay with MOLT-4 leukemia, in the assay with MDA-MB-435 and with DU-145 prostate was greater than 10 µM throughout. Further, the TGI in the assay on EKVX NSCLC and with K-562 leukemia was greater than 10 µM each time.

Consider `C=C1CC2C[C@H](OS(=O)(=O)c3ccc(C)cc3)C(C1)N2C` (some centres undefined), for which the TGI in the assay on CAKI-1 renal, in the assay with T-47D breast, in the assay with SK-MEL-2 melanoma, in the assay on MOLT-4 leukemia, in the assay on MDA-MB-435 and in the assay with DU-145 prostate was greater than 100 µM in each case. For the same compound, the TGI in the assay on EKVX NSCLC and in the assay on K-562 leukemia was greater than 100 µM in each case.

Turning to `CCCCCCCCCCCCCCC(=O)NC(CCCCN)C(=O)CN1CCCC1C(=O)NCC(=O)NC(Cc1ccccc1)C(=O)N1CCCC1C(=O)NC(CO)C(=O)NC(Cc1ccc(O)cc1)C(=O)NC(CCCCN)C(=O)NC(CC(C)C)C(=O)NC(CCCN=C(N)N)C(=O)N1CCCC1C(=O)NCC(N)=O` (centres undefined) (Pentadecanoyl-[X12]GFPSYKLRPG-NH2; configuration not given here), the GI50 in the assay on CAKI-1 renal is 20.6 µM; in the assay on T-47D breast, 17.2 µM; in the assay on SK-MEL-2 melanoma, 37.5 µM; with MOLT-4 leukemia it was 16.3 µM; in the assay on MDA-MB-435, 28.2 µM; in the assay on DU-145 prostate it was 24.1 µM. In addition, the GI50 in the assay on EKVX NSCLC was 25.9 µM; in the assay with K-562 leukemia it was 19.5 µM. Moreover, the TGI was 48.7 µM with CAKI-1 renal; 40.7 µM with T-47D breast; greater than 100 µM in the assay on SK-MEL-2 melanoma; 34.6 µM with MOLT-4 leukemia; 89.3 µM with MDA-MB-435; 53.8 µM in the assay with DU-145 prostate. The TGI came out at 60.5 µM in the assay on EKVX NSCLC and 40 µM in the assay on K-562 leukemia.

For the compound `C/C(=N\Nc1nc2ccccc2n1C)c1ccncn1`, the TGI is greater than 75 µM with CAKI-1 renal; greater than 100 µM with T-47D breast; greater than 100 µM with SK-MEL-2 melanoma; 30.9 µM in the assay with ACHN renal; greater than 100 µM with MOLT-4 leukemia; greater than 44.7 µM in the assay with DU-145 prostate. The TGI in the assay on EKVX NSCLC was greater than 47.7 µM; with K-562 leukemia, greater than 100 µM.

Take `Cc1nc2ccccc2nc1N1CCCC1`: the TGI in the assay on CAKI-1 renal, with T-47D breast, in the assay with SK-MEL-2 melanoma, in the assay on ACHN renal, in the assay with MDA-MB-435 and in the assay on DU-145 prostate was greater than 100 µM throughout. Moreover, the TGI in the assay on EKVX NSCLC and in the assay on K-562 leukemia was greater than 100 µM each time.

Regarding `CC1=CCC(=O)[C@]2(C)C(CC(=O)O)[C@]3(C)C4=C(C)C(c5ccoc5)C[C@@H]4O[C@@H]3[C@H](O)[C@@H]12` (some centres undefined), the TGI with CAKI-1 renal, in the assay on T-47D breast, with SK-MEL-2 melanoma, in the assay with ACHN renal, in the assay with MOLT-4 leukemia and in the assay on MDA-MB-435 was greater than 100 µM throughout. Also, the TGI in the assay on DU-145 prostate and in the assay with EKVX NSCLC was greater than 100 µM in each case.

Take `Clc1ccc(C2=NNC(c3cccc(Cl)c3)C2)cc1` (centres undefined): the TGI was greater than 100 µM in the assay on CAKI-1 renal; greater than 100 µM in the assay on T-47D breast; 5.55 µM with SK-MEL-2 melanoma; greater than 100 µM with MOLT-4 leukemia; 41.8 µM in the assay with MDA-MB-435; greater than 100 µM in the assay on DU-145 prostate. Also, the TGI with EKVX NSCLC and in the assay with K-562 leukemia was greater than 100 µM in each case.
